{"source": "patent US20260092179A1", "about": "“GENETICALLY MODIFIED HOST CELLS PRODUCING VIOLACEIN, ANALOGUES, AND DERIVATIVES THEREOF” (OCTARINE BIO APS, priority 2022, published 2026)", "key": {"[1]": {"experiment": "Stability during laundering of dyed fabrics (colour fastness, ΔE)", "assay_type": "physicochemical", "conditions": "washed at 30° c.", "method": "(§1) In order to assess the stability and colour fastness of violacein and violacein derivatives dyed onto fabrics, dyed fabrics were subjected to a number of conditions. Fabrics were dyed according to Example 18 and colour coordinates and colour change before and after exposure to a given condition were determined as described in Example 18. To measure temperature stability, fabrics were incubated in an oven set to 80° c. for 4 h. To measure stability under acid and alkaline conditions, fabrics were fully submerged in water solutions set to pH 8 with NaOH and pH 5 with HCl and incubated at room temperature for 30 minutes. Fabrics were then incubated at 37° c. for 4 h. To measure stability during laundering, fabrics were washed at 30° c. under the “mix” setting of a Siemens IQ300 washing machine, then dried in a Siemens IQ300 dryer until dry. To measure artificial light stability, fabrics were placed under an LED lamp at room temperature for 16 h. To measure UV light stability, fabrics were placed under a UV lamp at room temperature for 1 h."}, "[2]": {"experiment": "UV absorption capability (absorbance maxima, UV-A, UV-B, UV-C absorption) by HPLC", "assay_type": "physicochemical", "method": "The software Agilent Openlab CDS Chemstation Rev.\nViolacein is reported as being a potent UV absorbent able to effectively absorb UV radiation, however, much less is known about the other violacein derivatives. To investigate the potential of using violacein and violacein derivatives as UV inhibitors and to potentially impart UV protection to fabrics, the UV absorption spectra of each compound was analyzed by HPLC and the total absorption capability at each of the most relevant UV wavelengths quantified.\nFor the quantification of UV absorption capacity of the compound of interest, a chromatographic separation on the F5 column and a gradient of water/acetonitrile containing 0.05% formic acid was run according to Example 5). […] The compounds were quantified based on the signal at 230 nm, using calibration curves of authentic analytical standards.\nThe UV absorption capacity is represented in mAU.min/mM. UV-A, UV-B and UV-C represent the most relevant regions where UV protection is required. UV-C is the most harmful type of UV radiation and can be generated by inorganic sources. UV-B radiation predominantly comes from the suns rays and is responsible for sun burn. UV-A radiation is also derived predominantly from the suns rays, and while UV-A radiation is less harmful than UV-B or UV-C but is much more prevalent."}, "[3]": {"experiment": "Free radical scavenging ability of dyed Nylon 6,6 fabric (DPPH)", "assay_type": "biochemical", "conditions": "dyed Nylon 6,6 fabric strip", "method": "Violacein is reported as being a potent antioxidant able to effectively scavenge free radicals. […] To test this, 1.5×1.5 cm dyed Nylon 6,6 fabric strips were incubated in the dark at room temperature for 1 h in 5 mL of a 5×10^−5 M DPPH free radical solution in 100% ethanol. Undyed Nylon 6,6 fabric strips were included as a negative control. After 1 h absorbance was measured at 517 nm and % scavenging ability calculated as above."}, "[4]": {"experiment": "UV stability of dyed fabrics (colour fastness, ΔE)", "assay_type": "physicochemical", "conditions": "for ΔE: before vs after UV lamp, room temperature, 1 h", "method": "as §1"}, "[5]": {"conditions": "Acrylic, after test (UV lamp, room temperature, 1 h)"}, "[6]": {"conditions": "Bleached cotton, after test (UV lamp, room temperature, 1 h)"}, "[7]": {"conditions": "Diacetate, after test (UV lamp, room temperature, 1 h)"}, "[8]": {"conditions": "Nylon 6,6, after test (UV lamp, room temperature, 1 h)"}, "[9]": {"conditions": "Polyester, after test (UV lamp, room temperature, 1 h)"}, "[10]": {"conditions": "Wool, after test (UV lamp, room temperature, 1 h)"}}}
{"compound": "O=C1NC(c2c[nH]c3ccc(O)cc23)=C/C1=C1\\C(=O)Nc2ccccc21", "note": "[violacein]", "values": [{"measurement": "L", "setting": "[1]; Acrylic, After test", "result": 76.54}, {"measurement": "a", "setting": "[1]; Acrylic, After test", "result": 1.43}, {"measurement": "b", "setting": "[1]; Acrylic, After test", "result": 1.73}, {"measurement": "L", "setting": "[1]; Acrylic, Before test", "result": 62.97}, {"measurement": "a", "setting": "[1]; Acrylic, Before test", "result": 2.52}, {"measurement": "b", "setting": "[1]; Acrylic, Before test", "result": 0.79}, {"measurement": "ΔE", "setting": "[1]; Acrylic, before and after the stability test", "result": 13.65}, {"measurement": "L", "setting": "[1]; Bleached cotton, After test", "result": 67.09}, {"measurement": "a", "setting": "[1]; Bleached cotton, After test", "result": 2.56}, {"measurement": "b", "setting": "[1]; Bleached cotton, After test", "result": "−9.43"}, {"measurement": "L", "setting": "[1]; Bleached cotton, Before test", "result": 59.44}, {"measurement": "a", "setting": "[1]; Bleached cotton, Before test", "result": 2.08}, {"measurement": "b", "setting": "[1]; Bleached cotton, Before test", "result": "−7.15"}, {"measurement": "ΔE", "setting": "[1]; Bleached cotton, before and after the stability test", "result": 8.00}, {"measurement": "L", "setting": "[1]; Diacetate, After test", "result": 48.28}, {"measurement": "a", "setting": "[1]; Diacetate, After test", "result": 7.64}, {"measurement": "b", "setting": "[1]; Diacetate, After test", "result": "−12.1"}, {"measurement": "L", "setting": "[1]; Diacetate, Before test", "result": 44.66}, {"measurement": "a", "setting": "[1]; Diacetate, Before test", "result": 6.86}, {"measurement": "b", "setting": "[1]; Diacetate, Before test", "result": "−11.23"}, {"measurement": "ΔE", "setting": "[1]; Diacetate, before and after the stability test", "result": 3.80}, {"measurement": "L", "setting": "[1]; Nylon 6,6, After test", "result": 36.95}, {"measurement": "a", "setting": "[1]; Nylon 6,6, After test", "result": 5.38}, {"measurement": "b", "setting": "[1]; Nylon 6,6, After test", "result": "−21.45"}, {"measurement": "L", "setting": "[1]; Nylon 6,6, Before test", "result": 34.78}, {"measurement": "a", "setting": "[1]; Nylon 6,6, Before test", "result": 4.7}, {"measurement": "b", "setting": "[1]; Nylon 6,6, Before test", "result": "−19.46"}, {"measurement": "ΔE", "setting": "[1]; Nylon 6,6, before and after the stability test", "result": 3.02}, {"measurement": "L", "setting": "[1]; Polyester, After test", "result": 78.67}, {"measurement": "a", "setting": "[1]; Polyester, After test", "result": 0.26}, {"measurement": "b", "setting": "[1]; Polyester, After test", "result": 0.27}, {"measurement": "L", "setting": "[1]; Polyester, Before test", "result": 69.07}, {"measurement": "a", "setting": "[1]; Polyester, Before test", "result": 1.41}, {"measurement": "b", "setting": "[1]; Polyester, Before test", "result": "−0.67"}, {"measurement": "ΔE", "setting": "[1]; Polyester, before and after the stability test", "result": 9.71}, {"measurement": "L", "setting": "[1]; Wool, After test", "result": 73.9}, {"measurement": "a", "setting": "[1]; Wool, After test", "result": 1.48}, {"measurement": "b", "setting": "[1]; Wool, After test", "result": 1.8}, {"measurement": "L", "setting": "[1]; Wool, Before test", "result": 66.17}, {"measurement": "a", "setting": "[1]; Wool, Before test", "result": 1.43}, {"measurement": "b", "setting": "[1]; Wool, Before test", "result": 0.12}, {"measurement": "ΔE", "setting": "[1]; Wool, before and after the stability test", "result": 7.91}, {"measurement": "UV absorption capability in the UV-C region", "setting": "[2]; 245 nm", "result": "particularly high"}, {"measurement": "Total UV absorption UV C (245 nm)", "setting": "[2]; AUC of HPLC peak at 245 nm per mM", "result": "8876.8 (mAU · min)/mM"}, {"measurement": "Total UV absorption UV B (305 nm)", "setting": "[2]; AUC of HPLC peak at 305 nm per mM", "result": "1011.6 (mAU · min)/mM"}, {"measurement": "Total UV absorption UV A (360 nm)", "setting": "[2]; AUC of HPLC peak at 360 nm per mM", "result": "411.4 (mAU · min)/mM"}, {"measurement": "OD517", "setting": "[3]; 1 h in the dark in 5×10^−5 M DPPH in 100% ethanol", "result": 1.64}, {"measurement": "Scavenging ability %", "setting": "[3]; 1 h in the dark in 5×10^−5 M DPPH, vs undyed control", "result": 27.53, "unit": "%"}, {"measurement": "L", "setting": "[4]; [5]", "result": 62.36}, {"measurement": "a", "setting": "[4]; [5]", "result": 1.52}, {"measurement": "b", "setting": "[4]; [5]", "result": 0.96}, {"measurement": "L", "setting": "[4]; Acrylic, before test", "result": 59.81}, {"measurement": "a", "setting": "[4]; Acrylic, before test", "result": 2.39}, {"measurement": "b", "setting": "[4]; Acrylic, before test", "result": 0.08}, {"measurement": "ΔE", "setting": "[4]; Acrylic", "result": 2.83}, {"measurement": "L", "setting": "[4]; [6]", "result": 58.38}, {"measurement": "a", "setting": "[4]; [6]", "result": 3.17}, {"measurement": "b", "setting": "[4]; [6]", "result": "−5.79"}, {"measurement": "L", "setting": "[4]; Bleached cotton, before test", "result": 58.11}, {"measurement": "a", "setting": "[4]; Bleached cotton, before test", "result": 3.63}, {"measurement": "b", "setting": "[4]; Bleached cotton, before test", "result": "−8.4"}, {"measurement": "ΔE", "setting": "[4]; Bleached cotton", "result": 2.66}, {"measurement": "L", "setting": "[4]; [7]", "result": 43.08}, {"measurement": "a", "setting": "[4]; [7]", "result": 10.1}, {"measurement": "b", "setting": "[4]; [7]", "result": "−9.59"}, {"measurement": "L", "setting": "[4]; Diacetate, before test", "result": 41.1}, {"measurement": "a", "setting": "[4]; Diacetate, before test", "result": 9.04}, {"measurement": "b", "setting": "[4]; Diacetate, before test", "result": "−13.41"}, {"measurement": "ΔE", "setting": "[4]; Diacetate", "result": 4.43}, {"measurement": "L", "setting": "[4]; [8]", "result": 35.29}, {"measurement": "a", "setting": "[4]; [8]", "result": 4.36}, {"measurement": "b", "setting": "[4]; [8]", "result": "−18.03"}, {"measurement": "L", "setting": "[4]; Nylon 6,6, before test", "result": 34.58}, {"measurement": "a", "setting": "[4]; Nylon 6,6, before test", "result": 4.58}, {"measurement": "b", "setting": "[4]; Nylon 6,6, before test", "result": "−19.61"}, {"measurement": "ΔE", "setting": "[4]; Nylon 6,6", "result": 1.75}, {"measurement": "L", "setting": "[4]; [9]", "result": 68.13}, {"measurement": "a", "setting": "[4]; [9]", "result": 1.99}, {"measurement": "b", "setting": "[4]; [9]", "result": "−0.71"}, {"measurement": "L", "setting": "[4]; Polyester, before test", "result": 67.13}, {"measurement": "a", "setting": "[4]; Polyester, before test", "result": 1.68}, {"measurement": "b", "setting": "[4]; Polyester, before test", "result": "−1.12"}, {"measurement": "ΔE", "setting": "[4]; Polyester", "result": 1.12}, {"measurement": "L", "setting": "[4]; [10]", "result": 68.91}, {"measurement": "a", "setting": "[4]; [10]", "result": 2.13}, {"measurement": "b", "setting": "[4]; [10]", "result": 1.49}, {"measurement": "L", "setting": "[4]; Wool, before test", "result": 68.14}, {"measurement": "a", "setting": "[4]; Wool, before test", "result": 0.77}, {"measurement": "b", "setting": "[4]; Wool, before test", "result": 1.77}, {"measurement": "ΔE", "setting": "[4]; Wool", "result": 1.59}]}
